Test results from ChEMBL document CHEMBL1201862, “PubChem BioAssay data set” (2004).
Activity calls are given as the source filed them.

Columns and labels:
[1] = target: Heat shock protein HSP 90-alpha (Homo sapiens, UniProt P07900); type: functional, organism-based
[2] = target: T1, Endoribonuclease toxin MazF (Escherichia coli K-12, UniProt P0AE70); assay: substrate-only fluorescence increase artefacts – biochemical, single-stranded RNase substrate, counter-screen for MazEF activator project, dose response (AID 588502); type: functional
T1 sequence (P0AE70 whole entry): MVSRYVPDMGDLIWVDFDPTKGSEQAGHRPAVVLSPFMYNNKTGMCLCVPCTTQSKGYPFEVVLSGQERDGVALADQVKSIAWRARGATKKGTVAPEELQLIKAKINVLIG

[3] = target: T1, Endoribonuclease toxin MazF; assay: activation of MazEF endoribonuclease cleavage – biochemical, fluorescence, single-stranded RNA substrate, uHTS hits, dose response (AID 588481); type: functional
[4] = cells; type: functional, cell-based
[5] = cells; type: functional, cell-based; remark: listed apart in the source
[6] = microbe, parasite or virus in culture; type: functional; settings: Mycobacterium tuberculosis
[7] = THP-1 cell cytotoxicity, dose response, cytotoxicity control for non-replicating M. tuberculosis project (AID 489025); type: functional
[8] = cells; type: functional
[9] = Vero E6 cell cytotoxicity, dose response, cytotoxicity control for non-replicating M. tuberculosis project, secondary assay (AID 492998); type: functional, VeroE6; settings: Vero C1008
[10] = target: T2, Long-chain-fatty-acid--AMP ligase FadD28 (Mycobacterium tuberculosis, UniProt P9WQ59); assay: Fluorescence polarization aasay to screen for inhibitors that compete for the binding of FadD28 to a bisubstrate Measured in Biochemical System Using Plate Reader - 2147-01_Inhibitor_Dose_CherryPick_Activity.; type: functional, Mycobacterium tuberculosis H37Rv
T2 sequence (P9WQ59 whole entry): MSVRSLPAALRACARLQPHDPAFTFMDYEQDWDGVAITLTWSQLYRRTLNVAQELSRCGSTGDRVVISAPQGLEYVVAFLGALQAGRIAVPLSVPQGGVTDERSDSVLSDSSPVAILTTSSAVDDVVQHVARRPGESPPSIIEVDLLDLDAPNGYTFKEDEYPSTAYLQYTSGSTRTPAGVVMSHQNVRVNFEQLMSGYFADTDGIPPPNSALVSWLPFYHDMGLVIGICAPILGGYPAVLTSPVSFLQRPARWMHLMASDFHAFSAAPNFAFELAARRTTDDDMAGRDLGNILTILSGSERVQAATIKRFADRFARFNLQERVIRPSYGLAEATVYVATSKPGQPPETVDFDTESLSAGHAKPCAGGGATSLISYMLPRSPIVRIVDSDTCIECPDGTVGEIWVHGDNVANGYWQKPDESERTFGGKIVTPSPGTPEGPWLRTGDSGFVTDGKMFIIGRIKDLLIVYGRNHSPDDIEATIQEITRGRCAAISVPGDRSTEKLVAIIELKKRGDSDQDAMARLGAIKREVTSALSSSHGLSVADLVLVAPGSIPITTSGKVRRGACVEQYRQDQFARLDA

[11] = target: Cytochrome P450 3A4 (Homo sapiens, UniProt P08684); settings: Potency;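 also: confirmatory qHTS run detecting inhibitors and substrates of CYP3A4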
Sequence of Cytochrome P450 3A4 (P08684 whole entry): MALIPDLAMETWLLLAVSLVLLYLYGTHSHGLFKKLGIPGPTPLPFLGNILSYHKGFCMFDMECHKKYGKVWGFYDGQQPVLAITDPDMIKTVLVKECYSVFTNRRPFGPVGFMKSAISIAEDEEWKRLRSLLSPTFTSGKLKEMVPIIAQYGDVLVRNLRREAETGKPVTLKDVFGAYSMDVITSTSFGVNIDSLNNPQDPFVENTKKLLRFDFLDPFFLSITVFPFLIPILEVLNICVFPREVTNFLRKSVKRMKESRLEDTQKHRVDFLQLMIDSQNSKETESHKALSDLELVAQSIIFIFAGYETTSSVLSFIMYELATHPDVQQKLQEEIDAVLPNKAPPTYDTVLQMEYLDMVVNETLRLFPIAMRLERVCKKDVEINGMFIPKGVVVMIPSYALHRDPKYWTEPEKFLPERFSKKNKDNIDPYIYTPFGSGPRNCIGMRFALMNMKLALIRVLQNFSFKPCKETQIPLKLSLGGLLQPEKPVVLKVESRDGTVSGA

[12] = target: T3, Polyadenylate-binding protein 1 (Homo sapiens, UniProt P11940); assay: MLLE binding blockers, Cy5 peptide tracer – biochemical, fluorescence polarization, Cy5-PAM2 peptide, secondary, miRNA deadenylation inhibitor project, dose response (AID 602260); type: functional; settings: read-out: IC50_Mean
T3 sequence (P11940 whole entry, the tested form may be a part): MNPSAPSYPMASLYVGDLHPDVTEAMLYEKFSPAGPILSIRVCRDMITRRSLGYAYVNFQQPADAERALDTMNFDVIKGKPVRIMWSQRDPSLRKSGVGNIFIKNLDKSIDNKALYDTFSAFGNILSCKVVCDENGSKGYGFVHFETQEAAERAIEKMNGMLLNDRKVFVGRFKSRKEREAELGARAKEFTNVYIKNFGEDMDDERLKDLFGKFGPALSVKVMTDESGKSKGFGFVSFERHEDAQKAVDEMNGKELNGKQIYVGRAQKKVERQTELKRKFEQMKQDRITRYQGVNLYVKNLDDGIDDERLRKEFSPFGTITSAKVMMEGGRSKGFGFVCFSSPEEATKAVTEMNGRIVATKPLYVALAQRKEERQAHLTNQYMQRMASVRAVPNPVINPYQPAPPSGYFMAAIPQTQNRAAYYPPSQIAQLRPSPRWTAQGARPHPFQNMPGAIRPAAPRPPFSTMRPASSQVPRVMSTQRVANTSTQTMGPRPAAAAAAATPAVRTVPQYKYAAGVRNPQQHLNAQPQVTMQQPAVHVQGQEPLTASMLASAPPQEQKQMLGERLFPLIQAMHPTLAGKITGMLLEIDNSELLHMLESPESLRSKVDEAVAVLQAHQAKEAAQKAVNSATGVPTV

[13] = target: T3, Polyadenylate-binding protein 1; assay: MLLE domain peptide-binding blockers, IC50 – biochemical, fluorescence polarization, FITC-PAM2 peptide, dose response (AID 602259); type: functional; settings: read-out: IC50_Mean
[14] = Trypanosoma cruzi growth suppression in host cells – NIH3T3 host cells, beta-gal luminescence, confirmation (AID 2044); type: functional, cell-based;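 also: intracellular parasites grown in NIH/3T3 mouse fibroblasts as host cells; luminescent beta-galactosidase reporter signal from transgenic T. cruzi replicating inside host cells; inhibitors lower the luminescence signal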
[15] = NIH3T3 cell viability loss – ATP luminescence, mouse fibroblasts, counter-screen, dose response (AID 2010); type: functional, cell-based;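 also: cells exposed to compound for about 90 hours before reading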
[16] = HEK-293T viability loss after treatment – luminescence, T-cell screen hits, cytotoxicity control for TCR NF-kB inhibitor project, dose response (AID 489026); type: functional, cell-based;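 also: cells exposed to compound about 14 hours before the viability readout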
[17] = target: T4, Replicative DNA helicase DnaB (Mycobacterium tuberculosis, UniProt P9WMR3); assay: DnaB intein splicing inhibitors, dose response, biochemical, cell-free fluorescence (AID 449749); type: functional
T4 sequence (P9WMR3 whole entry): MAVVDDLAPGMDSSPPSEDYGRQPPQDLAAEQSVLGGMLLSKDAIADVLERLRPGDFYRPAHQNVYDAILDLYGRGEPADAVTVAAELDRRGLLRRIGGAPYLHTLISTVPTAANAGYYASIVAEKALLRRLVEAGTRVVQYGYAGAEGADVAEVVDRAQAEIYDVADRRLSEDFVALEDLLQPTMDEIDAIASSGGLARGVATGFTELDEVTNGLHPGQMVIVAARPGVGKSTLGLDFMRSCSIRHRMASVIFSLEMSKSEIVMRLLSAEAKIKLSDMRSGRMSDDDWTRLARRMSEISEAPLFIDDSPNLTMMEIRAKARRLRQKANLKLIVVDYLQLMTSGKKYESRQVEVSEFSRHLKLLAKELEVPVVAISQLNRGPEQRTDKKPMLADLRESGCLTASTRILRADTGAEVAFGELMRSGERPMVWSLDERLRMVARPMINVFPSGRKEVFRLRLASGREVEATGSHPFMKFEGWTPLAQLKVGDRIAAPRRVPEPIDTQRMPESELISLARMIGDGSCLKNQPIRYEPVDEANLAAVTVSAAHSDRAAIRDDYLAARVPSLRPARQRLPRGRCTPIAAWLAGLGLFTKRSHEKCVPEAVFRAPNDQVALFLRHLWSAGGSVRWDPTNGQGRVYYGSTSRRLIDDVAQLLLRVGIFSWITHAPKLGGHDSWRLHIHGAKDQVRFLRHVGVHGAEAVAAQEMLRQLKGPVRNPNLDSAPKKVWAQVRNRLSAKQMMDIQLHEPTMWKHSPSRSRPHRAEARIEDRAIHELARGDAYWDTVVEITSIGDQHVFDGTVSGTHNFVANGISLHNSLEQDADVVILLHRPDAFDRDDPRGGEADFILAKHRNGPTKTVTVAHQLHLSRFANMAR

[18] = target: T5, Protein RecA (Mycobacterium tuberculosis, UniProt P9WHJ3); assay: Fluorescence Cell-Free Homogeneous Dose Retest to Identify Inhibitors of RecA-Intein Splicing Activity. [Related pubchem assays (depositor defined):AID2097, AID2223, AID489010, AID492950]; type: functional
T5 sequence (P9WHJ3 whole entry): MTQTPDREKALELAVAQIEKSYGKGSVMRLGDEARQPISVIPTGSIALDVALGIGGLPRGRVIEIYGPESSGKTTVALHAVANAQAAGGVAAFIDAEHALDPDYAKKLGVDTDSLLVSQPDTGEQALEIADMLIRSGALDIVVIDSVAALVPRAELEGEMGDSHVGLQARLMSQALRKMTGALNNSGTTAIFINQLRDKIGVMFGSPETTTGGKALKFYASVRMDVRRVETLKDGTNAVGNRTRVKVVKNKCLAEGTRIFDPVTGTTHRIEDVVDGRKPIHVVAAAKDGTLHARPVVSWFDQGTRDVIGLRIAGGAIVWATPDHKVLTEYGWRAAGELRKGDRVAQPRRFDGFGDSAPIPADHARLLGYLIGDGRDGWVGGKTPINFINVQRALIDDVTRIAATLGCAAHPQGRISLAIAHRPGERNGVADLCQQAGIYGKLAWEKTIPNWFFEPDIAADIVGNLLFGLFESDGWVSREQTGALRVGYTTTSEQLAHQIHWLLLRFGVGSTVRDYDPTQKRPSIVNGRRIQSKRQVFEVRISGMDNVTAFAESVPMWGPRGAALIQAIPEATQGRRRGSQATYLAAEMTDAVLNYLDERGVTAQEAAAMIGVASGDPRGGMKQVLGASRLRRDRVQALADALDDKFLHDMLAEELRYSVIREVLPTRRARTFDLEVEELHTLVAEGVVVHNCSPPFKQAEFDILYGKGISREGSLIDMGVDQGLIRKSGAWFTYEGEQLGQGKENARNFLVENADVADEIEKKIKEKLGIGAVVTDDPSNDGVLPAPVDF

[19] = tested on: H9c2; assay: cells; type: functional, cell-based; settings: Rattus norvegicus, H9c2, Myocardium;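 also: confirmatory concentration-response retest of ultra-high-throughput screening hits for modulation of myocardial damage; cell death induced by hydrogen peroxide oxidative stress; compound pretreatment for 60 min then peroxide exposure for 2 h; potency is for protecting the cells against peroxide damage rather than for killing them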

## O=c1c(-c2ccccc2)c(-c2ccccc2)oc2cc(O)cc(O)c12
[1]
  AC50: 7.78 µM (active)

## Cc1sc(NC(=O)COc2cccc(-n3cnnn3)c2)c(C#N)c1C
[2]
  EC50: > 99 µM (inactive)
[3]
  EC50: > 99 µM (inactive)

## Cc1cc(C)nc(Sc2ncnc(N)c2[N+](=O)[O-])n1
[4]
  EC50: > 350 µM (not active)
[5]
  EC50: > 350 µM (not active)
[6]
  CC50: 26.3 µM (active)
[7]
  CC50: 23.8 µM (active)
[8]
  IC50: 11.7 µM (active)
[9]
  CC50: 17.8 µM (active)

## COc1ccc(NC(=O)CNc2ccccc2N2CCCC2=O)cc1S(=O)(=O)N1CCOCC1
[10]
  AC50: 34.1 µM (active)

## COC(=O)c1cccc(C23CC4(C2)[C@H](CN(Cc2ccc(-c5ccccc5)cc2)[C@@H]4c2ccccc2)C3c2ccc(C(F)(F)F)cc2)c1 (some centres undefined)
[11]
  AC50: 20 µM (inconclusive)

## COc1ccc2nc3cc(Cl)ccc3c(C#N)c2c1
[2]
  EC50: > 99 µM (inactive)
[12]
  IC50: > 66 µM (inactive)
[13]
  IC50: > 66 µM (inactive)
[3]
  EC50: > 99 µM (inactive)

## COc1cc(OC)cc(N2C(=O)CC(N3CCC(C(=O)N4CCCCC4)CC3)C2=O)c1 (centres undefined)
[1]
  AC50: 8.16 µM (active)

## CCOC(=O)CSc1nc2cc(C)ccc2cc1C#N
[2]
  EC50: 26.8 µM (inactive)
[3]
  EC50: > 99 µM (inactive)

## Nc1c(C(=O)c2ccc(Cl)cc2)sc2nc3c(cc12)CCC3
[2]
  EC50: > 99 µM (inactive)
[3]
  EC50: > 99 µM (inactive)

## Cc1cccc(NC(=O)c2ccc([N+](=O)[O-])s2)n1
[7]
  CC50: 29.9 µM (active)
[14]
  EC50: 0.325 µM (active)
[15]
  EC50: > 60 µM (not active)
[8]
  IC50: 11.8 µM (active)
[9]
  CC50: 19.1 µM (active)

## CCCCC(CC)COP(=O)(OCC(CC)CCCC)OCC(CC)CCCC (centres undefined)
[11]
  AC50: 15.8 µM (inconclusive)

## C=CCOC(=O)C(C(C)=O)C(NC(=O)OC)c1ccco1 (centres undefined)
[11]
  AC50: 5.01 µM (inconclusive)

## COC(=O)[C@@H]1C[C@@H]2CC[C@@H](O)C[C@@H]2N1Cc1ccc(C)s1
[11]
  AC50: 25.1 µM (inconclusive)

## Nc1ncnc2c1ncn2[C@@H]1O[C@H](CNCc2ccc(OCc3ccccc3)cc2)[C@@H](O)[C@H]1O
[10]
  AC50: 64.2 µM (active)

## COc1cccc(NC(=O)CN(C)C(=O)c2cc3c(s2)CCCCC3)c1
[10]
  AC50: 84 µM (active)

## COc1cc(C2c3cc4c(cc3CC3COC(=O)C32)OCO4)cc(OC)c1OC (centres undefined)
[16]
  IC50: > 80 µM (inactive)

## Cc1ccc2c(c1)C(=O)C(=O)N2Cc1ccc(C(F)(F)F)cc1
[1]
  AC50: 7.94 µM (active)

## Cc1[nH]n(-c2ccccc2)c(=O)c1C(C[N+](=O)[O-])c1ccccc1Cl (centres undefined)
[17]
  AC50: 6.69 µM (active)
[6]
  CC50: > 40 µM (active)
[18]
  EC50: 5.48 µM (active)

## Cc1cccc(-n2[nH]c(C)c(/C=N/c3ccc4[nH]c(O)nc4c3)c2=O)c1
[2]
  EC50: 65.2 µM (inactive)
[19]
  IC50: > 79 µM (inactive)
[3]
  EC50: 36 µM (inactive)

## COC(=O)c1c(C)c2c(c(C)c1O)OC(=O)c1c(C)c(Cl)c(O)c(Cl)c1O2 [LEOIDIN]
[11]
  AC50: 2.51 µM (inconclusive)
